The record followed here is ChEMBL document CHEMBL2074543, “Interactions of cationic drugs and cardiac glycosides at the hepatic uptake level: studies in the rat in vivo, isolated perfused rat liver, isolated rat hepatocytes and oocytes expressing oatp2” (Arch Pharm Res, 2002).

The target of this series is T1, Solute carrier organic anion transporter family member 1A4 (Rattus norvegicus, UniProt O35913).
T1 sequence (O35913 whole entry): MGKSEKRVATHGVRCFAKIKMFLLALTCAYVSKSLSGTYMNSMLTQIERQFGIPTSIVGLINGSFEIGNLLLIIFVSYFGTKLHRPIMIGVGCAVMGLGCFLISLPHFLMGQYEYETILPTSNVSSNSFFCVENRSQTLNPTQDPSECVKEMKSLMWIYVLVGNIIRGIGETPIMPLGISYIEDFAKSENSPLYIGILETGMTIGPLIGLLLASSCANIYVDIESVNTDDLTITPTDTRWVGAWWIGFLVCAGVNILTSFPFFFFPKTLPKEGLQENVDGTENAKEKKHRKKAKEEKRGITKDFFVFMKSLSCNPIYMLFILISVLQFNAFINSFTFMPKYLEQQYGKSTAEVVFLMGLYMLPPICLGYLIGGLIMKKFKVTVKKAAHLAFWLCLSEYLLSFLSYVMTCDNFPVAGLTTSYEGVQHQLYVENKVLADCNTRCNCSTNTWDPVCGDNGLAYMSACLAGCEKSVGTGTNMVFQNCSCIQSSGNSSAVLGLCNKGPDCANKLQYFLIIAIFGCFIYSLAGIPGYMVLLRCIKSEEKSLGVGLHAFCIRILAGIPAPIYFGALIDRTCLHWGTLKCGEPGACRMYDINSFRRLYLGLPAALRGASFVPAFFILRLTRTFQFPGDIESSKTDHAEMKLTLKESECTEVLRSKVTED
The series can be described thus: TP_TRANSPORTER: inhibition of Rocuronium uptake in Xenopus laevis oocytes. In kind it is functional, cell-based. To be noted: oocyte.

Regarding `CC[N+](C)(CC)CCNC(=O)c1ccc(N=[N+]=[N-])cc1.[I-]` [AZIDOPROCAINAMIDE METHOIODIDE], the Activity result is “is not an inhibitor [-]”.
Turning to `CCCC[N+](C)(CCCC)CCCC` [TRIBUTYLMETHYLAMMONIUM], the Activity entry was “is not an inhibitor [-]”.
